Test results: a melting point compilation (Tetko et al.; mined from patent text by program, amines drawn as free bases though some values may be those of a salt)

Row | Compound | melting point [°C]
1 | CCCCOc1ccc(-c2ncc(Br)cn2)cn1 | 134 to 138
2 | NC(=O)C(CC1CCCC1)c1ccc(Cl)c([N+](=O)[O-])c1 (centres undefined) | 112 to 114
3 | O=C(O)CCCCC1NC(=O)OC1=O (centres undefined) | 102 to 104
4 | CN(C)C=Nc1nc(=O)n(C(=O)OCC(C)(C)C)cc1F | 162 to 164
5 | Cc1cnn(-c2ccc(C(=O)N3Cc4cccn4Cc4ccccc43)c(Cl)n2)c1 | 155 to 156
6 | CCN(CC)CCCNc1ccc(-c2ccnc(Nc3cc(OC)c(OC)c(OC)c3)n2)cn1 | 67
7 | CN1C(c2ccc(NS(C)(=O)=O)cc2)NCc2ccccc2C1c1ccccc1 (centres undefined) | 124 to 126
8 | O=C1NC(=O)c2cc(C(c3ccc4c(c3)C(=O)NC4=O)(C(F)(F)F)C(F)(F)F)ccc21 | 322
9 | O=C1Nc2ccccc2CCC1Cl (centres undefined) | 163 to 167
10 | CCOC(=O)Cc1ccc(CCNC(=O)c2ccc(Cl)cc2)cc1 | 118 to 119
11 | Cc1cccc(CN2CCC(c3cc(-c4ccc(Cl)cc4)[nH]n3)CC2)c1 | 119 to 120
12 | O=[N+]([O-])c1ccc2c(c1)C(c1ccccc1)=NCC(OP(=O)(N1CCOCC1)N1CCOCC1)=N2 | 208 to 209
13 | COC(=O)C1N=C(c2ccccc2F)c2cc(Cl)ccc2-n2c1cnc2C (centres undefined) | 203 to 205
14 | CCn1cc(C(=O)O)c(=O)c2cc(F)c(N3CCNCC3)c(OC)c21 | 169
15 | CCCC12CCC3=C(CCc4cc(OC)ccc43)C1CCC2=O (centres undefined) | 111 to 113
16 | CC(=C1SC(=O)NC1=O)c1ccc(OCCOc2c(-c3ccc(F)c(F)c3)n(C)c3ccc(F)cc3c2=O)c(Cl)c1 | 215 to 218
17 | O=S1(=O)c2cccc3cccc(c23)N1CCN1CCN(c2nsc3ccccc23)CC1 | 162
18 | Cc1ncc(C(O)=S)cc1OC1CCCC1 | 177 to 178
19 | O=C(O)Cc1ccc2c(c1)sc1cccc(Cl)c12 | 203 to 206
20 | Cc1nc(NC(=O)Nc2ccc(N3CCN(C(=O)Nc4cc(OCCO)ccc4Cl)CC3)nc2)sc1C | 128 to 129
21 | N#CC1=C(c2c[nH]c3ccccc23)Nc2n[nH]cc2C1c1cccc2nonc12 (centres undefined) | 238
22 | O=C(CCCCSc1nc(-c2ccccc2)c(-c2ccccc2)[nH]1)NCCOCCO | 176 to 178

Results, then the compound that gave them:

Row | melting point [°C] | Compound
23 | 207 to 208 | O=Cc1c(Cl)n(C2OC(CF)C(O)C2O)c2cc(Cl)c(Cl)cc12 (centres undefined)
24 | 81 to 91 | O=C(O)C(=O)c1ccco1
25 | 130 to 132 | CC(C)OCCNc1ccc(C(=O)N2CCN(CCc3ccc(Cl)cc3)CC2)cc1
26 | 111 | COc1cc(-c2nc(C)no2)cc([N+](=O)[O-])c1OC
27 | 146 to 147 | COc1ccc(C2=NN(Cc3ccccn3)C(=O)[C@H]3CC=CC[C@@H]23)cc1OC (relative stereo)
28 | 143 to 144 | CNC(=O)c1cc(N[C@@H]2c3ccccc3C[C@H]2O)c2nc(C)c(C)n2c1 (relative stereo)
29 | 231 to 235 | CCc1cc(=O)c2nc(OC(C)C)c(Cl)cc2[nH]1
30 | 68 to 70 | CN(Cc1ccccc1)S(=O)(=O)CC#N
31 | 128 to 130 | CCS(=O)(=O)CC(=O)Nc1c(C)cccc1C
32 | 165 to 168 | CC(=O)n1cc(-c2ccccc2)c(-n2cnnc2)n1
33 | 151 | OC1(c2ccncc2)CCc2ccccc21 (centres undefined)
34 | 67 to 76 | COc1cc2c(cc1Nc1ncc(Cl)c(Nc3ccc(N4CCOCC4)cc3OC)n1)CCN(CC(=O)N(C)C)CC2
35 | 164 to 166 | CC(C)(C)c1cc(C(=O)c2ccc(N)cc2)cc(C(C)(C)C)c1O
36 | 147 to 151 | O=C(Cn1cc(-c2ccccc2)cc(NC(=O)OCc2ccccc2)c1=O)NC(Cc1ccccc1)C(=O)C(F)(F)F (centres undefined)
37 | 109 to 112 | COc1cc(O)c(CN2CCc3cc(O)ccc3C2)c(OC)c1
38 | 66 | CC(C)N(CCOc1ccc(CC2SC(=O)NC2=O)cc1)c1nc2ccccc2o1 (centres undefined)
39 | 103 to 104 | CCOC(=O)c1ccc(-c2ccc(OC)cc2)cc1
